The results in this text go back to US20130296425A1, “PROPHYLACTIC OR THERAPEUTIC AGENT FOR A PERIPHERAL NERVE DISORDER INDUCED BY ANTI-CANCER AGENTS” (NAGOYA INDUSTRIAL SCIENCE RESEARCH INSTITUTE, priority 2011, published 2013).

The subject of the experiment is paclitaxel-induced peripheral nerve disorder rats. In words: Oral administration (suspension or α-CD inclusion complex), hyperalgesia by paclitaxel (von Frey test). Format: in vivo, rat. Particulars: for 50% reaction threshold value, after 5 hours from administration / AUC of 50% reaction threshold value over time, measured value: single dose; for 50% reaction threshold value, before administration: baseline. As for the experimental part:
A suspension ([…]) 5 mL of the compound 4 was mixed with a 1% α-CD aqueous solution followed by stirring overnight to prepare an α-CD inclusion complex of the compound 4.
With regard to male SD rats of six weeks age used as the experimental animals, the rats were organized into the following six groups each comprising 6 rats. • Oral administration group with 0.3 mg/kg of the test drug suspension • Oral administration group with 3 mg/kg of the test drug suspension • Oral administration group with an α-CD inclusion complex containing 0.3 mg/kg of the test drug • Oral administration group with an α-CD inclusion complex containing 3 mg/kg of the test drug • α-CD oral administration group • Intraperitoneal administration group with 0.3 mg/kg of the test drug
Paclitaxel-induced peripheral nerve disorder rats were prepared in the same manner as in the above 1.[1](2). The compound 4 was used as a test drug and, after 39 days from the initiation of the administration of paclitaxel, it was orally administered in a single dose where the dose calculated as a test drug became 0.3 mg/kg or 3 mg/kg to oral administration groups with the test drug suspension or to oral administration groups with an α-CD inclusion complex containing the test drug while, to an intraperitoneal administration group with the test drug, it was intraperitoneally administered in a single dose of 0.3 mg/kg. Further, to an α-CD Oral administration group, an α-CD solution was orally administered in a single dose of 15 mg/kg.
A von Frey test was conducted in the same manner as in the above 1.[1](4) using the rats mentioned in the above (2) and 50% reaction threshold values in each group were measured before initiating the administration of a test drug and after 1, 5 and 24 hours. Further, AUC (area of the part surrounded by a curve and an abscissa axis (a time axis) in a graph showing the 50% reaction threshold value over time from administration of the test drug) was calculated and the relative ratio of each group was calculated where the AUC of the intraperitoneal administration group with 0.3 mg/kg of the test drug was adopted as 100.

The mark [1] stands for this setting: oral 0.3 mg/kg, test drug suspension.
Where [2] appears, read: oral 3 mg/kg, test drug suspension.

Molecules are shown by their SMILES.

In the case of `CCCCCCC/C=C/C(=O)OCC` [Compound 4, Trans-2-decenoic acid ethyl ester], the “50% reaction threshold value, after 5 hours from administration” value turned out to be 8.57 (intraperitoneal 0.3 mg/kg), 6.00 under setting [1] and 8.66 under setting [2]. The “AUC of 50% reaction threshold value over time, measured value” was determined as 74.59 (intraperitoneal 0.3 mg/kg), 31.83 under setting [1] and 54.99 under setting [2]. For the same molecule, the “50% reaction threshold value, before administration” value amounted to 4.58 (intraperitoneal 0.3 mg/kg), 4.57 under setting [1] and 4.57 under setting [2]. Further, the AUC relative ratio by setting is: (intraperitoneal 0.3 mg/kg, this group adopted as 100) 100; (oral 0.3 mg/kg, test drug suspension, AUC of i.p. 0.3 mg/kg group = 100) 43; (oral 3 mg/kg, test drug suspension, AUC of i.p. 0.3 mg/kg group = 100) 74.
